Data taken from patent US20110039762A1, “TARGETED ANTIMICROBIAL MOIETIES” (C3 JIAN, INC., priority 2009, published 2011).
“Also recorded” adds a separate entry of the source.

system: microorganisms (e.g., bacteria, yeasts, fungi); assay: Targeting peptide binding to target microorganisms (Table 3); conditions: microorganism the targeting peptide binds; binding in aqueous buffers varied by peptide solubility, preferably 1x PBS

Row | Substance | Target(s)
1 | 1T-78 (FFKTIFVLILGALGVAAGLYIEKNYIDK; Peptide with targeting and/or antimicrobial activity) [Peptide 1T-78] | S. pneumoniae
2 | 1T-79 (FGTPWSITNFWKKNFNDRPDFDSDRRRY; Peptide with targeting and/or antimicrobial activity) [Peptide 1T-79] | S. pneumoniae
3 | 1T-80 (GGNLGPGFGVIIP; Peptide with targeting and/or antimicrobial activity) [Peptide 1T-80] | S. pneumoniae
4 | 1T-81 (AIATGLDIVDGKFDGYLWA; Peptide with targeting and/or antimicrobial activity) [Peptide 1T-81] | S. pneumoniae
5 | 1T-82 (FGVGVGIALFMAGYAIGKDLRKKFGKSC; Peptide with targeting and/or antimicrobial activity) [Peptide 1T-82] | S. pneumoniae
6 | 1T-83 (QKPRKNETFIGYIQRYDIDGNGYQSLPCPQN; Peptide with targeting and/or antimicrobial activity) [Peptide 1T-83] | S. pneumoniae
7 | 1T-84 (FRKKRYGLSILLWLNAFTNLVNSIHAFYMTLF; Peptide with targeting and/or antimicrobial activity) [Peptide 1T-84] | S. pneumoniae
8 | 1T-86 (HRKNPVLGVGRRHRAHNVA; Peptide with targeting and/or antimicrobial activity) [Peptide 1T-86] | S. mitis; also recorded: S. oralis; also recorded: S. salivarious
9 | 1T-87 (EAVGQDLVDAHHP; Peptide with targeting and/or antimicrobial activity) [Peptide 1T-87] | S. mitis; also recorded: S. mutans; also recorded: S. oralis
10 | 1T-89 (HEDDKRRGMSVEVLGFEVVQHEE; Peptide with targeting and/or antimicrobial activity) [Peptide 1T-89] | S. mitis; also recorded: S. mutans
11 | 1T-90 (RNVIGQVL; Peptide with targeting and/or antimicrobial activity) [Peptide 1T-90] | S. gordonii; also recorded: S. mitis; also recorded: S. mutans; also recorded: S. oralis; also recorded: S. sanguinis
12 | 1T-91 (TSVRPGAAGAAVPAGAAGAAGAGWRWP; Peptide with targeting and/or antimicrobial activity) [Peptide 1T-91] | S. mitis; also recorded: S. mutans; also recorded: S. oralis; also recorded: S. sanguinis
13 | 1T-92 (GQDEGQRRAGVGEGQGVDG; Peptide with targeting and/or antimicrobial activity) [Peptide 1T-92] | S. mitis; also recorded: S. mutans
14 | 1T-93 (AMRSVNQA; Peptide with targeting and/or antimicrobial activity) [Peptide 1T-93] | S. epidermidis; also recorded: S. gordonii; also recorded: S. mitis; also recorded: S. mutans; also recorded: S. oralis; also recorded: S. sanguinis
15 | 1T-94 (DQVAHSGDMLVQARRRDS; Peptide with targeting and/or antimicrobial activity) [Peptide 1T-94] | S. mitis; also recorded: S. mutans; also recorded: S. oralis
16 | 1T-95 (GHLLRVGGRVGGVGGVAGACAQPFGGQ; Peptide with targeting and/or antimicrobial activity) [Peptide 1T-95] | S. gordonii; also recorded: S. mitis; also recorded: S. mutans; also recorded: S. oralis; also recorded: S. sanguinis
17 | 1T-96 (VAGACAQPFGGQ; Peptide with targeting and/or antimicrobial activity) [Peptide 1T-96] | S. gordonii; also recorded: S. mitis; also recorded: S. mutans; also recorded: S. oralis; also recorded: S. sanguinis
18 | 1T-99 (MKAWLGQ; Peptide with targeting and/or antimicrobial activity) [Peptide 1T-99] | S. gordonii; also recorded: S. mitis; also recorded: S. mutans; also recorded: S. oralis; also recorded: S. sanguinis
19 | 1T-100 (LDPLEPRIAPPGDRSHQGAPACHRDPLRGRSARDAER; Peptide with targeting and/or antimicrobial activity) [Peptide 1T-100] | S. gordonii; also recorded: S. mitis; also recorded: S. mutans
20 | 1T-101 (RLRVGRATDLPLTSFAVGVVRNLPDAPAH; Peptide with targeting and/or antimicrobial activity) [Peptide 1T-101] | A. naeslundii; also recorded: P. gingivalis; also recorded: S. epidermidis; also recorded: S. gordonii; also recorded: S. mitis; also recorded: S. mutans; also recorded: S. oralis; also recorded: S. sanguinis
21 | 1T-104 (RAVAAHLQGRHHGHQVRRQRHGQR; Peptide with targeting and/or antimicrobial activity) [Peptide 1T-104] | S. mitis
22 | 1T-105 (GEGLPPPVLHLPPPRMSGR; Peptide with targeting and/or antimicrobial activity) [Peptide 1T-105] | S. epidermidis; also recorded: S. gordonii; also recorded: S. mitis; also recorded: S. mutans; also recorded: S. oralis
23 | 1T-106 (DALRRSRSQGRRHR; Peptide with targeting and/or antimicrobial activity) [Peptide 1T-106] | S. gordonii; also recorded: S. mitis; also recorded: S. mutans; also recorded: S. oralis; also recorded: S. salivarious
24 | 1T-107 (SPVPRFTAVGGVSRGSP; Peptide with targeting and/or antimicrobial activity) [Peptide 1T-107] | A. naeslundii; also recorded: S. epidermidis; also recorded: S. gordonii; also recorded: S. mitis; also recorded: S. mutans; also recorded: S. oralis; also recorded: S. salivarious; also recorded: S. sanguinis
25 | 1T-108 (WGPLGPERPLW; Peptide with targeting and/or antimicrobial activity) [Peptide 1T-108] | S. gordonii; also recorded: S. mitis; also recorded: S. mutans; also recorded: S. oralis; also recorded: S. salivarious; also recorded: S. sanguinis
26 | 1T-109 (VTTNVRQGAGS; Peptide with targeting and/or antimicrobial activity) [Peptide 1T-109] | A. naeslundii; also recorded: S. epidermidis; also recorded: S. gordonii; also recorded: S. mitis; also recorded: S. mutans; also recorded: S. oralis; also recorded: S. salivarious; also recorded: S. sanguinis
27 | 1T-110 (LAAKTAVCVGRAFM; Peptide with targeting and/or antimicrobial activity) [Peptide 1T-110] | A. naeslundii; also recorded: P. gingivalis; also recorded: S. epidermidis; also recorded: S. gordonii; also recorded: S. mitis; also recorded: S. mutans; also recorded: S. oralis; also recorded: S. sanguinis
28 | 1T-112 (SDNDGKLILGTSQ; Peptide with targeting and/or antimicrobial activity) [Peptide 1T-112] | S. gordonii
29 | 1T-113 (HGAHQRTGQRLHHHRGRTVSGCRQNPVAGVDPDEHR; Peptide with targeting and/or antimicrobial activity) [Peptide 1T-113] | S. mitis
30 | 1T-114 (RQAPGPGLVTITAACSAPGSRSR; Peptide with targeting and/or antimicrobial activity) [Peptide 1T-114] | A. naeslundii; also recorded: P. gingivalis; also recorded: S. epidermidis; also recorded: S. gordonii; also recorded: S. mitis; also recorded: S. mutans; also recorded: S. oralis; also recorded: S. sanguinis
